According to patent US20120322819A1, “COMPOUND CONTAINING A NOVEL 4-ALKOXYPYRIMIDINE STRUCTURE AND MEDICINE CONTAINING SAME” (KOWA COMPANY, LTD., priority 2010, published 2012):

The compounds below were run against T1, human PPARγ2 (Homo sapiens, UniProt P37231) (assay: PPARγ activation activity, Gal4-PPARγ2 LBD chimera luciferase transfection assay in COST cells). Conditions: Gal4 (aa 1-147)/human PPARγ2 LBD (aa 182-505) chimera, luciferase reporter, 16 hours, rosiglitazone (3 to 10 μmol/L) = 100%, read-out: EC50 (50% effective concentration, PPARγ activation).
T1 construct: the amino acids 182 to 505 of human PPARγ2; expressed in transfected cells; host or cells: COST cells (so in the source)
T1 sequence (P37231 182-505): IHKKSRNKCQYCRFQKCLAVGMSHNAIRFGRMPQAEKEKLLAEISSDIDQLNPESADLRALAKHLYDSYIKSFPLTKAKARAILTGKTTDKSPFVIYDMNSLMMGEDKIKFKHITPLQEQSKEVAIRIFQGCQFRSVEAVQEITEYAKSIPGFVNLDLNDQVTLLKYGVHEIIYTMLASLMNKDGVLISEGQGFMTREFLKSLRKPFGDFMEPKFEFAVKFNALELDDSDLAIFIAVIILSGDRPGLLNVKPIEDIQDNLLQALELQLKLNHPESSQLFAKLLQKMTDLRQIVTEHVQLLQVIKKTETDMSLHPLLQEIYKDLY
Type: cell-based
Protocol: PPARγ Activation Activity
The agonistic activity of the compounds of the invention on PPARγ was measured based on the transfection assay using COST cells (DS Pharma Biomedical Co., Ltd., Osaka, Japan), which are the cell line derived from the kidney of the African green monkey. COST cells were cultured under 5% CO2 concentration, and DMEM medium containing 10% fetal bovine serum, glutamic acid, and antibiotics was used as a medium.
As an expression vector, a chimera in which DNA binding domain of Ga14, which is a yeast transcription factor, and ligand binding domain of human PPARγ2 are fused, i.e., a fused product between the amino acids 1 to 147 of Gal4 transcription factor and the amino acids 182 to 505 of human PPARγ2, was used. Furthermore, as a reporter vector, a firefly luciferase containing five copies of Gal4 recognition sequence in the promoter region was used. Plasmid transfection to the cells was performed according to a method which uses jetPEI (trade name, manufactured by Funakoshi Co., Ltd., Tokyo, Japan). Furthermore, β-galactosidase expression vector was employed as an internal standard.
After the transfection of the cells, the medium was replaced with a DMEM medium (containing 1% serum) added with the test compound, and the cells were further cultured for 16 hours. After that, the luciferase activity and β-galactosidase activity in the cell lysis solution were measured.
For the present test, dimethylsulfoxide (DMSO) was used for dissolution and dilution of the test compounds, and during the cell treatment, the DMSO concentration in DMEM medium (containing 1% serum) was adjusted to 0.1%. As a positive compound, rosiglitazone (trade name, manufactured by ALEXIS Corporation, Switzerland) was used. The percentage (%) of the luciferase activity of the each test compound (1 to 30 μmol/L) was calculated when the luciferase activity of rosiglitazone (3 to 10 μmol/L) is 100% and the luciferase activity in the absence of the test compound is 0%. The 50% effective concentration of the test compound (EC50, 50% effect concentration) was calculated by using SAS Preclinical Package Ver 5.0 (trade name, manufactured by SAS institute Japan Co., Tokyo, Japan), which is a statistical analysis program.
With `CCCCc1nc(C)nc(OCC(N)=O)c1Cc1ccc(-c2ccccc2-c2noc(=O)[nH]2)cc1` [Example 3, 2-{{6-butyl-2-methyl-5-{[2′-(5-oxo-4,5-dihydro-1,2,4-oxadiazol-3-yl)-[1,1′-biphenyl]-4-yl]methyl}pyrimidin-4-yl}oxy}acetamide] the EC50 was 2.87 µM. `CCCCc1nc(C)nc(OCCCC(=O)NCC)c1Cc1ccc(-c2ccccc2-c2noc(=O)[nH]2)cc1` [Example 9, 4-{{6-butyl-2-methyl-5-{[2′-(5-oxo-4,5-dihydro-1,2,4-oxadiazol-3-yl)-[1,1′-biphenyl]-4-yl]methyl}pyrimidin-4-yl}oxy}-N-ethylbutanamide] gave an EC50 of 2.8 µM. `CCCCc1nc(C)nc(OCCCC(=O)N(CC)CC)c1Cc1ccc(-c2ccccc2-c2noc(=O)[nH]2)cc1` [Example 10, 4-{{6-butyl-2-methyl-5-{[2′-(5-oxo-4,5-dihydro-1,2,4-oxadiazol-3-yl)-[1,1′-biphenyl]-4-yl]methyl}pyrimidin-4-yl}oxy}-N,N-diethylbutanamide] showed an EC50 of 1.79 µM. With `CCCCc1nc(C)nc(OCCOCC)c1Cc1ccc(-c2ccccc2-c2noc(=O)[nH]2)cc1` [Example 11, 3-{4′-{[4-butyl-6-(2-ethoxyethoxy)-2-methylpyrimidin-5-yl]methyl}-[1,1′-biphenyl]-2-yl}-1,2,4-oxadiazol-5(4H)-one] the EC50 was 0.87 µM. Compound `CCCCc1nc(C)nc(OCCOCCC)c1Cc1ccc(-c2ccccc2-c2noc(=O)[nH]2)cc1` [Example 12, 3-{4′-{[4-butyl-2-methyl-6-(2-propoxyethoxy)pyrimidin-5-yl]methyl}-[1,1′-biphenyl]-2-yl}-1,2,4-oxadiazol-5(4H)-one] has an EC50 of 0.57 µM. `CCCCc1nc(C)nc(OCCOCCOC)c1Cc1ccc(-c2ccccc2-c2noc(=O)[nH]2)cc1` [Example 13, 3-{4′-{{4-butyl-6-[2-(2-methoxyethoxy)ethoxy]-2-methylpyrimidin-5-yl}methyl}-[1,1′-biphenyl]-2-yl}-1,2,4-oxadiazol-5(4H)-one] showed an EC50 of 1.6 µM. `CCCCc1nc(C)nc(OCCOCc2ccccc2)c1Cc1ccc(-c2ccccc2-c2noc(=O)[nH]2)cc1` [Example 14, 3-{4′-{{4-[2-(benzyloxy)ethoxy]-6-butyl-2-methylpyrimidin-5-yl}methyl}-[1,1′-biphenyl]-2-yl}-1,2,4-oxadiazol-5(4H)-one] gave an EC50 of 0.29 µM. Work on `CCCCc1nc(C)nc(OCCOC(C)C)c1Cc1ccc(-c2ccccc2-c2noc(=O)[nH]2)cc1` [Example 16, 3-{4′-{[4-butyl-6-(2-isopropoxyethoxy)-2-methylpyrimidin-5-yl]methyl}-[1,1′-biphenyl]-2-yl}-1,2,4-oxadiazol-5(4H)-one] yielded an EC50 of 0.64 µM. `CCCCc1nc(C)nc(OCCSC)c1Cc1ccc(-c2ccccc2-c2noc(=O)[nH]2)cc1` [Example 17, 3-{4′-{{4-butyl-2-methyl-6-[2-(methylthio)ethoxy]pyrimidin-5-yl}methyl}-[1,1′-biphenyl]-2-yl}-1,2,4-oxadiazol-5(4H)-one] was tested, and the EC50 was 0.41 µM. Compound `CCCCc1nc(C)nc(OCC(OC)OC)c1Cc1ccc(-c2ccccc2-c2noc(=O)[nH]2)cc1` [Example 19, 3-{4′-{[4-butyl-6-(2,2-dimethoxyethoxy)-2-methylpyrimidin-5-yl]methyl}-[1,1′-biphenyl]-2-yl}-1,2,4-oxadiazol-5(4H)-one] has an EC50 of 0.88 µM. Compound `CCCCc1nc(C)nc(OCC(OCC)OCC)c1Cc1ccc(-c2ccccc2-c2noc(=O)[nH]2)cc1` [Example 20, 3-{4′-{[4-butyl-6-(2,2-diethoxyethoxy)-2-methylpyrimidin-5-yl]methyl}-[1,1′-biphenyl]-2-yl}-1,2,4-oxadiazol-5(4H)-one] has an EC50 of 0.31 µM. With `CCCCc1nc(C)nc(OCC(C)O)c1Cc1ccc(-c2ccccc2-c2noc(=O)[nH]2)cc1` (stereo not shown) [Example 21, 3-{4′-{[4-butyl-6-(2-hydroxypropoxy)-2-methylpyrimidin-5-yl]methyl}-[1,1′-biphenyl]-2-yl}-1,2,4-oxadiazol-5(4H)-one] the EC50 was 0.4 µM. `CCCCc1nc(C)nc(OCCCCOC)c1Cc1ccc(-c2ccccc2-c2noc(=O)[nH]2)cc1` [Example 23, 3-{4′-{[4-butyl-6-(4-methoxybutoxy)-2-methylpyrimidin-5-yl]methyl}-[1,1′-biphenyl]-2-yl}-1,2,4-oxadiazol-5(4H)-one] showed an EC50 of 0.71 µM. `CCCCc1nc(C)nc(OCC2OCCO2)c1Cc1ccc(-c2ccccc2-c2noc(=O)[nH]2)cc1` [Example 24, 3-{4′-{{4-[(1,3-dioxolan-2-yl)methoxy]-6-butyl-2-methylpyrimidin-5-yl}methyl}-[1,1′-biphenyl]-2-yl}-1,2,4-oxadiazol-5(4H)-one] showed an EC50 of 1.38 µM. In the case of `CCCCc1nc(C)nc(OC(C(=O)OC)c2ccccc2)c1Cc1ccc(-c2ccccc2-c2noc(=O)[nH]2)cc1` (stereo not shown) [Example 25, methyl 2-{{6-butyl-2-methyl-5-{[2′-(5-oxo-4,5-dihydro-1,2,4-oxadiazol-3-yl)-[1,1-biphenyl]-4-yl]methyl}pyrimidin-4-yl}oxy}-2-phenylacetate], the EC50 is reported as 0.73 µM. Compound `CCCCc1nc(C)nc(OCC(=O)N2CCCC2)c1Cc1ccc(-c2ccccc2-c2noc(=O)[nH]2)cc1` [Example 29, 3-{4′-{{4-butyl-2-methyl-6-[2-oxo-2-(pyrrolidin-1-yl)ethoxy]pyrimidin-5-yl}methyl}-[1,1′-biphenyl]-2-yl}-1,2,4-oxadiazof-5 (4H)-one] has an EC50 of 2.08 µM. `CCCCc1nc(C)nc(OCc2nc(-c3ccc(C)cc3)oc2C)c1Cc1ccc(-c2ccccc2-c2noc(=O)[nH]2)cc1` [Example 32, 3-{4′-{{4-butyl-2-methyl-6-{[5-methyl-2-(p-tolyl)oxazol-4-yl]methoxy}pyrimidin-5-yl}methyl}-[1,1′-biphenyl]-2-yl}-1,2,4-oxadiazol-5(4H)-one] showed an EC50 of 0.38 µM. `CCCCc1nc(C)nc(OC2CCC(O)CC2)c1Cc1ccc(-c2ccccc2-c2noc(=O)[nH]2)cc1` (stereo not shown) [Example 34, 3-{4′-{{4-butyl-6-[(4-hydroxycyclohexyl)oxy]-2-methylpyrimidin-5-yl]methyl}-[1,1′-biphenyl]-2-yl}-1,2,4-oxadiazol-5 (4H)-one] was tested, and the EC50 was 1.36 µM. For `CCCCc1nc(C)nc(OC2CCC(=O)CC2)c1Cc1ccc(-c2ccccc2-c2noc(=O)[nH]2)cc1` [Example 35, 3-{4′-{{4-butyl-2-methyl-6-[(4-oxocyclohexyl)oxy]pyrimidin-5-yl}methyl}-[1,1′-biphenyl]-2-yl}-1,2,4-oxadiazol-5(4H)-one], the EC50 was 1.53 µM. With `CCCCc1nc(C)nc(OCCc2ccc(OCCOC)c(OC)c2)c1Cc1ccc(-c2ccccc2-c2noc(=O)[nH]2)cc1` [Example 36, 3-{4′-{{4-butyl-6-[3-methoxy-4-(2-methoxyethoxy)phenethoxy]-2-methylpyrimidin-5-yl}methyl}-[1,1′-biphenyl]-2-yl}-1,2,4-oxadiazol-5 (4H)-one] the EC50 was 0.63 µM. `CCCCCc1nc(C)nc(OCCOC)c1Cc1ccc(-c2ccccc2-c2noc(=O)[nH]2)cc1` [Example 37, 3-{4′-{[4-(2-methoxyethoxy)-2-methyl-6-pentylpyrimidin-5-yl]methyl}-[1,1′-biphenyl]-2-yl}-1,2,4-oxadiazol-5(4H)-one] was tested, and the EC50 was 0.84 µM. In the case of `CCCc1nc2c(C)cc(-c3nc4ccccc4n3C)cc2n1Cc1ccc(-c2ccccc2C(=O)O)cc1` [telmisartan, reference compound], the EC50 is reported as 1 to 5 µM.
